# Source: ChEMBL document CHEMBL1201862, “PubChem BioAssay data set” (2004)
#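 Following 48 hours of exposure in 96-well plates, responses at five concentrations were used to interpolate endpoints linearly. GI50 = concentration required for 50% inhibition of growth.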 Activity calls are given as the source filed them. Cut-off read from the data, not from the text of the source: active = GI50 up to about 1.1 µM and inactive = higher.
# How the values were obtained:
# Test in all cases: NCI tumour cell line growth inhibition, 48 h
# [1] = tested on: T47D
# [2] = tested on: OVCAR-5
# [3] = tested on: 786-0
# [4] = tested on: HOP-62
# [5] = tested on: SK-MEL-5
# [6] = tested on: HCT-15
# [7] = tested on: U-251
# [8] = tested on: SNB-75
# [9] = tested on: MDA-MB-435
# [10] = tested on: SK-MEL-28
# [11] = tested on: Malme-3M
# [12] = tested on: KM12
# [13] = tested on: SR
# [14] = tested on: OVCAR-4
# [15] = tested on: A549
# [16] = tested on: ACHN
# [17] = tested on: IGROV-1
# [18] = tested on: MDA-N
# [19] = tested on: COLO 205
# [20] = tested on: RPMI-8226
# [21] = tested on: MDA-MB-231
# [22] = tested on: NCI-H23
# [23] = tested on: NCI-H460
# [24] = tested on: DU-145
# [25] = tested on: HCC 2998
# [26] = tested on: BT-549
# [27] = tested on: CAKI-1
# [28] = tested on: CCRF-CEM
# [29] = tested on: HL-60
# [30] = tested on: NCI-H226
# [31] = tested on: SW-620
# [32] = tested on: UACC-62
# [33] = tested on: A498
# [34] = tested on: MOLT-4
# [35] = tested on: NCI-H522
# [36] = tested on: SK-MEL-2
# [37] = tested on: RXF 393
# [38] = tested on: TK-10
# [39] = tested on: Hs-578T
# [40] = tested on: OVCAR-8
# [41] = tested on: M14
# [42] = tested on: UO-31
# [43] = tested on: PC-3
# [44] = tested on: HOP-92
# [45] = tested on: SF-268
# [46] = tested on: HT-29
# [47] = tested on: SK-OV-3
# [48] = tested on: HCT-116
# [49] = tested on: SNB-19
# [50] = tested on: SF-295
# [51] = tested on: EKVX
# [52] = tested on: MCF7
# [53] = tested on: UACC-257
# [54] = tested on: K562
# [55] = tested on: OVCAR-3
# [56] = tested on: NCI/ADR-RES
# [57] = tested on: SN12C
# [58] = tested on: SF-539
# [59] = tested on: LOX IMVI
smiles,measurement,setting,value
Nc1nc(Cl)cc(Oc2ccc(Cl)cc2)n1,GI50,[1],32.4 µM (inactive)
same,GI50,[2],> 56.1 µM (inactive)
same,GI50,[3],> 59 µM (inactive)
same,GI50,[4],> 100 µM (inactive)
same,GI50,[5],> 56.6 µM (inactive)
same,GI50,[6],> 57.4 µM
same,GI50,[7],> 56.2 µM (inactive)
same,GI50,[8],> 100 µM (inactive)
same,GI50,[9],> 57.3 µM (inactive)
same,GI50,[10],> 57.3 µM (inactive)
same,GI50,[11],34.3 µM (inactive)
same,GI50,[12],> 100 µM (inactive)
same,GI50,[13],> 80.4 µM (inactive)
same,GI50,[14],> 53.2 µM (inactive)
same,GI50,[15],> 100 µM (inactive)
same,GI50,[16],31.4 µM (inactive)
same,GI50,[17],> 100 µM (inactive)
same,GI50,[18],> 61 µM (inactive)
same,GI50,[19],> 60.5 µM (inactive)
same,GI50,[20],> 55.6 µM (inactive)
same,GI50,[21],> 56.1 µM (inactive)
same,GI50,[22],29.5 µM (inactive)
same,GI50,[23],> 54.7 µM (inactive)
same,GI50,[24],> 56.2 µM (inactive)
same,GI50,[25],> 55.2 µM (inactive)
same,GI50,[26],28.2 µM (inactive)
same,GI50,[27],44.6 µM (inactive)
same,GI50,[28],> 77.6 µM (inactive)
same,GI50,[29],> 68.9 µM (inactive)
same,GI50,[30],> 100 µM (inactive)
same,GI50,[31],> 58.6 µM (inactive)
same,GI50,[32],29.9 µM (inactive)
same,GI50,[33],> 47.5 µM (inactive)
same,GI50,[34],> 60.5 µM (inactive)
same,GI50,[35],22.6 µM (inactive)
same,GI50,[36],> 100 µM (inactive)
same,GI50,[37],> 100 µM (inactive)
same,GI50,[38],28.2 µM (inactive)
same,GI50,[39],> 53.7 µM (inactive)
same,GI50,[40],> 73.6 µM (inactive)
same,GI50,[41],> 57 µM (inactive)
same,GI50,[42],29.9 µM (inactive)
same,GI50,[43],> 100 µM (inactive)
same,GI50,[44],23.2 µM (inactive)
same,GI50,[45],> 54.8 µM (inactive)
same,GI50,[46],> 100 µM (inactive)
same,GI50,[47],> 55.2 µM (inactive)
same,GI50,[48],> 57.9 µM (inactive)
same,GI50,[49],> 53.7 µM (inactive)
same,GI50,[50],> 55.8 µM (inactive)
same,GI50,[51],> 100 µM (inactive)
same,GI50,[52],> 53.2 µM (inactive)
same,GI50,[53],38.5 µM (inactive)
same,GI50,[54],> 55.8 µM (inactive)
same,GI50,[55],> 56.4 µM (inactive)
same,GI50,[56],> 70.3 µM (inactive)
same,GI50,[57],> 51.9 µM (inactive)
same,GI50,[58],> 50.7 µM (inactive)
same,GI50,[59],> 48.3 µM (inactive)
Oc1cc(F)cc2cccnc12,GI50,[1],1.3 µM (inactive)
same,GI50,[2],3.29 µM (inactive)
same,GI50,[3],7.29 µM (inactive)
same,GI50,[4],2.56 µM (inactive)
same,GI50,[5],0.998 µM (active)
same,GI50,[6],0.25 µM
same,GI50,[7],0.957 µM (active)
same,GI50,[8],11.8 µM (inactive)
same,GI50,[9],2.38 µM (inactive)
same,GI50,[10],48 µM (inactive)
same,GI50,[11],0.628 µM (active)
same,GI50,[12],1.3 µM (inactive)
same,GI50,[13],0.182 µM (active)
same,GI50,[14],0.435 µM (active)
same,GI50,[15],1.02 µM (active)
same,GI50,[16],0.933 µM (active)
same,GI50,[17],0.889 µM (active)
same,GI50,[18],12.6 µM (inactive)
same,GI50,[19],5.89 µM (inactive)
same,GI50,[20],0.259 µM (active)
same,GI50,[21],1.54 µM (inactive)
same,GI50,[22],1.09 µM (active)
same,GI50,[23],1.24 µM (inactive)
same,GI50,[24],5.58 µM (inactive)
same,GI50,[25],26.1 µM (inactive)
same,GI50,[26],0.968 µM (active)
same,GI50,[27],3.96 µM (inactive)
same,GI50,[28],0.0778 µM (active)
same,GI50,[29],0.0887 µM (active)
same,GI50,[30],3.54 µM (inactive)
same,GI50,[31],0.855 µM (active)
same,GI50,[32],2.73 µM (inactive)
same,GI50,[33],6.58 µM (inactive)
same,GI50,[34],0.206 µM (active)
same,GI50,[35],0.183 µM (active)
same,GI50,[36],16.4 µM (inactive)
same,GI50,[37],3.75 µM (inactive)
same,GI50,[38],17.9 µM (inactive)
same,GI50,[39],3.68 µM (inactive)
same,GI50,[40],0.324 µM (active)
same,GI50,[41],1.02 µM (active)
same,GI50,[42],0.652 µM (active)
same,GI50,[43],1.27 µM (inactive)
same,GI50,[44],0.0356 µM (active)
same,GI50,[45],0.218 µM (active)
same,GI50,[46],4.47 µM (inactive)
same,GI50,[47],4.45 µM (inactive)
same,GI50,[48],1.89 µM (inactive)
same,GI50,[49],5.31 µM (inactive)
same,GI50,[50],1.1 µM (active)
same,GI50,[51],0.418 µM (active)
same,GI50,[52],0.0689 µM (active)
same,GI50,[53],0.402 µM (active)
same,GI50,[54],0.105 µM (active)
same,GI50,[55],0.0975 µM (active)
same,GI50,[56],0.281 µM (active)
same,GI50,[57],1.04 µM (active)
same,GI50,[58],1.34 µM (inactive)
same,GI50,[59],0.362 µM (active)
